Data: patent US20260337231A1, “METHOD FOR PRODUCING CYCLIC PEPTIDE COMPOUND” (CHUGAI SEIYAKU KABUSHIKI KAISHA, priority 2023, published 2026)

Tests used:
Format in all cases: physicochemical
[1] = Thermogravimetry-differential thermal analysis (TG-DTA); details: 10° C./min, nitrogen
Procedure: The thermogravimetry-differential thermal analysis (TG-DTA) for Example 3-8, Example 3-9, Example 3-12, Example 3-13, Example 3-17, and Example 3-19 was performed under the following conditions. • Measurement apparatus: STA7200RV+AS-3T (manufactured by Hitachi High-Tech Science Corporation) • Measurement range: 30 to 350° C. • Heating rate: 10° C./min • Atmosphere: nitrogen • Measurement: The sample was weighed in an open aluminum pan and covered with a mesh to perform the measurement.

[2] = Powder X-ray diffraction measurement at each relative humidity (influence of humidity on the crystal form); details: 35.0 °C
Procedure: (§1) The powder X-ray diffraction measurement for Example 3-12 was performed under the following conditions to evaluate the crystal form at each relative humidity. The measurement was carried out at the time points between dropping the relative humidity to 0% and raising it to 90%: 0% (FIG. 21(A)), 10% (FIG. 21(B)), 20% (FIG. 21(C)), 50% (FIG. 21(D)), and 90% (FIG. 21(E)). • Measurement apparatus: SmartLab System, D/Tex Ultra detector, humidity generator HUM-SL (manufactured by Rigaku Corporation) • Radiation source: CuKα1 • Tube voltage: 45 kV • Tube current: 200 mA • Scanning range: 4 to 35° • Scanning speed: 5°/min • Sampling width: 0.02° • Humidity change conditions:
as §1, with “3-13” for “3-12”, “24(A)), 30%” for “21(A)), 10%”, “24(B)),” for “21(B)), 20% (FIG. 21(C)),”, “24(C)),” for “21(D)),”, “24(D)).” for “21(E)).”, “conditions: […]” for “conditions:”

[3] = Slurry conversion experiment (form A, form B and form K crystals mixed and shaken in mixed solvent); details: 25° C., 2000 rpm
Procedure: The powder X-ray diffraction measurement for Example 3-2, Example 3-3, Example 3-4, Example 3-5, Example 3-6, Example 3-7, Example 3-9, Example 3-16, Example 3-17, Example 3-22, Example 5-1, Example 5-2, Example 5-3, Example 5-4, Example 5-5, Example 5-6, Example 5-7, Example 5-8, and Example 5-9 was performed under the following conditions. • Measurement apparatus: D8 Discover, 2D VANTEC-500 solid state detector (manufactured by Bruker) • Radiation source: CuKα • Tube voltage and tube current: 50 kV and 1000 μA • Measurement range: 5 to 31° • Exposure time: 40 seconds
(§2) The form A crystal (3.0 mg), form B crystal (3.0 mg), and form K crystal (3.0 mg) of compound 1 were mixed, and a mixed solvent of acetone-heptane (1:1 (v/v), 0.030 mL) and one grain of glass bead were added. Using a shaker (BioShaker M⋅BR-022UP manufactured by TAITEC CORPORATION), the mixture was shaken at 25° C., 2000 rpm for 9 days, and then filtered and dried under reduced pressure to obtain a crystal (form B) of compound 1. […] It was confirmed that the form B crystal is a stable form in the mixed solvent of acetone-heptane (1:1 (v/v)).
as §2, with “(3.1” for “(3.0”, “2-propanol-heptane” for “acetone-heptane”
as §2, with “K crystal (3.1 mg) of” for “K crystal (3.0 mg) of”, “solvent of ethanol-heptane (1:1 (v/v),” for “solvent of acetone-heptane (1:1 (v/v),”, “solvent of ethanol-heptane (1:1 (v/v)).” for “solvent of acetone-heptane (1:1 (v/v)).”
as §2, with “acetone-water” for “acetone-heptane”
as §2, with “B crystal (3.1 mg), and” for “B crystal (3.0 mg), and”, “K crystal (3.1 mg) of” for “K crystal (3.0 mg) of”, “solvent of 2-propanol-water (1:1 (v/v),” for “solvent of acetone-heptane (1:1 (v/v),”, “solvent of 2-propanol-water (1:1 (v/v)).” for “solvent of acetone-heptane (1:1 (v/v)).”
The form A crystal (3.1 mg), form B crystal (3.0 mg), and form K crystal (3.1 mg) of compound 1 were mixed, and a mixed solvent of ethanol-water (1:1 (v/v), 0.030 mL) and one grain of glass bead were added. Using a shaker (BioShaker M⋅BR-022UP manufactured by TAITEC CORPORATION), the mixture was shaken at 25° C., 2000 rpm for 9 days, and then filtered and dried under reduced pressure to obtain a crystal (form B) of compound 1. […] It was confirmed that the form B crystal is a stable form in the mixed solvent of ethanol-water (1:1 (v/v)). […]

| Compound | weight reduction ([1]; crystal of Example 3-8 (from acetone/heptane)) | weight reduction ([1]; crystal of Example 3-9 (from 2-propanol/heptane)) | crystal form at a relative humidity of 0% [2] | stable form in slurry conversion ([3]; 2-propanol-heptane (1:1 (v/v)), 9 days) | stable form in slurry conversion ([3]; 2-propanol-water (1:1 (v/v)), 9 days) | stable form in slurry conversion ([3]; 2-propanol-water (1:4 (v/v)), 9 days) | stable form in slurry conversion ([3]; acetone-heptane (1:1 (v/v)), 9 days) | stable form in slurry conversion ([3]; acetone-water (1:1 (v/v)), 9 days) | stable form in slurry conversion ([3]; acetone-water (1:4 (v/v)), 9 days) | stable form in slurry conversion ([3]; ethanol-heptane (1:1 (v/v)), 9 days) | stable form in slurry conversion ([3]; ethanol-water (1:1 (v/v)), 9 days) | stable form in slurry conversion ([3]; ethanol-water (1:4 (v/v)), 7 days) |
| --- | --- | --- | --- | --- | --- | --- | --- | --- | --- | --- | --- | --- |
| CCC[C@H]1C(=O)N[C@@H]([C@@H](C)CC)C(=O)N2CCC[C@H]2C(=O)N(C)[C@H]2C/C=C\CCN(C2=O)[C@@H](Cc2ccc(C(F)(F)F)cc2)C(=O)N(C)CC(=O)N[C@@H](CCc2ccc(C(F)(F)F)c(OC)c2)C(=O)N2C[C@H](OCC)C[C@H]2C(=O)N(C)C2(CCC2)C(=O)N(C)[C@@H](C2CCCC2)C(=O)N(C)[C@H](C(=O)N(C)C)CC(=O)N1C [form A] | 3 wt % | 2 wt % | transformed into the form J |  |  |  |  |  |  |  |  |  |
| CCC[C@H]1C(=O)N[C@@H]([C@@H](C)CC)C(=O)N2CCC[C@H]2C(=O)N(C)[C@H]2C/C=C\CCN(C2=O)[C@@H](Cc2ccc(C(F)(F)F)cc2)C(=O)N(C)CC(=O)N[C@@H](CCc2ccc(C(F)(F)F)c(OC)c2)C(=O)N2C[C@H](OCC)C[C@H]2C(=O)N(C)C2(CCC2)C(=O)N(C)[C@@H](C2CCCC2)C(=O)N(C)[C@H](C(=O)N(C)C)CC(=O)N1C [form B] |  |  | transformed into the form Y | a stable form | a stable form | a stable form | a stable form | a stable form | a stable form | a stable form | a stable form | a stable form |
